Molecular target: human anti-Rha IgM
Test: Competitive ELISA: inhibition of human anti-Rha IgM binding to PAA-Rha coated wells
Conditions: indirect competitive ELISA; human serum 20 %; PAA-Rha coating 5 μg mL^−1; 1 h at 37 °C; Alexa-Fluor488 goat anti-human IgM (1:400), fluorescence Ex 488/Em 530 nm; average of three independent experiments; read-out: IC50, inhibition of binding of human anti-Rha IgM to Rha coated wells (monovalent control)
Description: We next performed enzyme‐linked immunosorbent assay (ELISA)‐type studies to evaluate the ability of glycoconjugates 3 and 6 to bind natural Abs. Microtiter plates were first coated with a commercial Rha‐functionalized poly[N‐(2‐hydroxyethyl)acrylamide] polymer (PAA‐Rha) and incubated with human serum, a source of anti‐Rha antibodies, then fluorescent goat anti‐human IgM and IgG. […] This observation is in good agreement with previous studies showing strong ratio variations of circulating antibodies in human sera.15, 16 A competitive assay was next performed with glycoconjugates 3 and 6 as inhibitors and Rha as the monovalent control (Figure 1). […]
The ability of the ABMs to recruit anti‐Rha antibodies present in human serum (HS) was evaluated by an indirect competitive ELISA binding study. […] The fluorescence has been measured by using an Omega BMG LABTECH plate reader (Ex: 488 nm/ Em: 530 nm). The percentage of binding inhibition of the human anti‐Rha IgM antibody to the rhamnose‐coated microplate was calculated by using the formula: inhibition (%)=((F max−F)/F max)×100. F max corresponds to the mean value of the higher fluorescence limit reached in the dilution series of each rhamnose conjugate whereas F is the fluorescence red for each concentration of the compound tested. The fluorescence values used in this formula were an average of triplicate experiments. […]

IC50: 1200 µM
SMILES: C[C@H](O)[C@H](O)[C@@H](O)[C@@H](O)C=O [Rha, L‐rhamnose]
